{
  "source": "patent US20230190871A1",
  "about": "“METHODS AND COMPOSITIONS FOR TREATMENT OF VIRAL INFECTIONS” (priority 2020, published 2023)",
  "key": {"[1]": {"test_system": "c19orf66 protein expression", "test": "doxycycline-induced c19orf66 protein expression by western blot in transduced Vero-E6 cells", "format": "cell-based", "details": "bulk sorted cells re-induced with 0, 0.8, 4, 20, 100 or 500 ng/mL"}, "EGFP expression": {"test_system": "EGFP expression", "test": "doxycycline-induced EGFP reporter expression (microscopy / flow cytometry) in transduced Vero-E6 cells", "format": "cell-based"}, "Vero E6 cells": {"test_system": "Vero E6 cells", "details": "African green monkey; for Cell Health: cell death / Cell Health: cells death: 48 h"}, "[2]": {"test_system": "SARS CoV-2 (USA_WA1/2020)", "format": "cell-based"}},
  "note": "Read-outs that look alike come from different tables or passages of the source.",
  "data": [
    {"compound": "C[C@H]1c2cccc(O)c2C(=O)C2=C(O)[C@]3(O)C(=O)C(C(N)=O)=C(O)[C@@H](N(C)C)[C@@H]3[C@@H](O)[C@@H]21", "note": "[doxycycline]", "values": [
      {"measurement": "doxycycline concentration inducing c19orf66 (western blot)", "setting": "[1]", "value": "at least 20 ng/mL"},
      {"measurement": "EGFP: doxycycline concentration at which EGFP is visible", "setting": "EGFP expression; Bulk Sorted, 48 hours", "value": 10, "unit": "ng/mL"},
      {"measurement": "EGFP: doxycycline concentration giving strong signal", "setting": "EGFP expression; Bulk Sorted, 48 hours", "value": 20, "unit": "ng/mL"},
      {"measurement": "EGFP: doxycycline concentration at which EGFP is visible", "setting": "EGFP expression; Bulk Sorted, 96 hours", "value": "Visible at ≧ 10 ng/mL"},
      {"measurement": "EGFP: doxycycline concentration at which EGFP is visible", "setting": "EGFP expression; Clone 9, 48 hours", "value": "Visible at 10 ng/mL and higher concentrations."},
      {"measurement": "EGFP: doxycycline concentration at which EGFP is visible", "setting": "EGFP expression; Clone 9, 96 hours", "value": "Visible at ≧ 10 ng/mL"},
      {"measurement": "EGFP: doxycycline concentration at which EGFP is visible", "setting": "EGFP expression; Clone 21, 48 hours", "value": 5, "unit": "ng/mL"},
      {"measurement": "EGFP: doxycycline concentration giving strong signal", "setting": "EGFP expression; Clone 21, 48 hours", "value": 10, "unit": "ng/mL"},
      {"measurement": "EGFP: doxycycline concentration at which EGFP is visible", "setting": "EGFP expression; Clone 21, 96 hours", "value": "Visible at ≧ 10 ng/mL"},
      {"measurement": "Cell Health: cell death", "setting": "Vero E6 cells; 10 ng/mL", "value": "50% cell death at 10 ng/mL and worse at higher concentrations."},
      {"measurement": "Cell Health: cell death", "setting": "Vero E6 cells; 20 ng/mL", "value": 50, "unit": "%"},
      {"measurement": "Cell Health: cells death", "setting": "Vero E6 cells; 50 ng/mL", "value": 20, "unit": "%"},
      {"measurement": "Cell Health: cells death", "setting": "Vero E6 cells; 100 ng/mL", "value": 40, "unit": "%"},
      {"measurement": "Cell Health: doxycycline concentration at which cell death is observed", "setting": "Vero E6 cells; 96 h", "value": 10, "unit": "ng/mL"}
    ]},
    {"compound": "C19orf66: Chromosome 19 Open Reading Frame 66 protein, interferon-stimulated gene; here expressed from a doxycycline-inducible lentiviral construct", "values": [
      {"measurement": "number of infected cells (% infected cells)", "setting": "[2]", "value": "reduction"},
      {"measurement": "viral inhibition relative to remdesivir control", "setting": "[2]", "value": "comparable to remdesivir"}
    ]}
  ]
}
